# Values of other authors as cited in US20230190748A1, “COMPOSITIONS FOR TREATMENT OF AGED DISEASES” (GERO PTE. LTD., priority 2020, published 2023).
# Experiments:
# [1] = white to brownish yellow powder
# EGFR/ErbB1 = EGFR/ErbB1 (Homo sapiens, UniProt P00533); details: class symbols + to ++++ and √; legend not given
# HER2/ErbB2 = HER2/ErbB2 (Homo sapiens, UniProt P04626); details: class symbols + to ++++ and √; legend not given
# HER2/ErbB2, sequence (P04626 23-1255): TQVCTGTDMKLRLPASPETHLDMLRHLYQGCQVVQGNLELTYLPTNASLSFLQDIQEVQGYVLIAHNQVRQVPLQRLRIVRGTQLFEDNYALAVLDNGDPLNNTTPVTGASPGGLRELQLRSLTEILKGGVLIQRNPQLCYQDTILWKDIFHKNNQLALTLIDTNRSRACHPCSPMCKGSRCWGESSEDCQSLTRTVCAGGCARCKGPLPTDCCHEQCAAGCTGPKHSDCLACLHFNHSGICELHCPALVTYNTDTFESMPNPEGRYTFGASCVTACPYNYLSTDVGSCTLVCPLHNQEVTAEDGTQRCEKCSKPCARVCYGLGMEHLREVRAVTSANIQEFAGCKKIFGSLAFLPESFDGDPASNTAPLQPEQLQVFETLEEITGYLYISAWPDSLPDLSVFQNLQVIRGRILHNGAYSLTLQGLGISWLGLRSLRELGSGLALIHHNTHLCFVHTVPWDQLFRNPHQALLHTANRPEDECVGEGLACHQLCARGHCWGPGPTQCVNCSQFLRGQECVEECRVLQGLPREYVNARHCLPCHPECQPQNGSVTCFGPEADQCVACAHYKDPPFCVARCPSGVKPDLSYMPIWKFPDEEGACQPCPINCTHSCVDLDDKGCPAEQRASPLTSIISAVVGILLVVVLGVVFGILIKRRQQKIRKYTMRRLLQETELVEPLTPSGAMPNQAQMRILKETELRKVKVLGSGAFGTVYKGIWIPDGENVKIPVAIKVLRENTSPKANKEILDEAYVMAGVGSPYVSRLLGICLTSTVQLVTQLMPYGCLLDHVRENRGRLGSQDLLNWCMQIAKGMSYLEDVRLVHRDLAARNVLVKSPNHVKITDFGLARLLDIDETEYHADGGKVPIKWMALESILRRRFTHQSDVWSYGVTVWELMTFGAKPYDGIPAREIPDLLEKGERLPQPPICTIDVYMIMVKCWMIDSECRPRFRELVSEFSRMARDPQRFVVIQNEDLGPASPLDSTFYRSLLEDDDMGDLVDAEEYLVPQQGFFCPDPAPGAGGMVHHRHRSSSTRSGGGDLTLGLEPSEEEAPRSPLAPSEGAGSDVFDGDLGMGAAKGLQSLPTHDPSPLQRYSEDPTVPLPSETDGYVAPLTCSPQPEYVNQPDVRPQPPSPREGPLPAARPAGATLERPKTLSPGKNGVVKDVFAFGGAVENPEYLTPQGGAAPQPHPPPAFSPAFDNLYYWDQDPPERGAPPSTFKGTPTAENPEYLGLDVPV
# EGFR/ErbB1, sequence (P00533 25-1210): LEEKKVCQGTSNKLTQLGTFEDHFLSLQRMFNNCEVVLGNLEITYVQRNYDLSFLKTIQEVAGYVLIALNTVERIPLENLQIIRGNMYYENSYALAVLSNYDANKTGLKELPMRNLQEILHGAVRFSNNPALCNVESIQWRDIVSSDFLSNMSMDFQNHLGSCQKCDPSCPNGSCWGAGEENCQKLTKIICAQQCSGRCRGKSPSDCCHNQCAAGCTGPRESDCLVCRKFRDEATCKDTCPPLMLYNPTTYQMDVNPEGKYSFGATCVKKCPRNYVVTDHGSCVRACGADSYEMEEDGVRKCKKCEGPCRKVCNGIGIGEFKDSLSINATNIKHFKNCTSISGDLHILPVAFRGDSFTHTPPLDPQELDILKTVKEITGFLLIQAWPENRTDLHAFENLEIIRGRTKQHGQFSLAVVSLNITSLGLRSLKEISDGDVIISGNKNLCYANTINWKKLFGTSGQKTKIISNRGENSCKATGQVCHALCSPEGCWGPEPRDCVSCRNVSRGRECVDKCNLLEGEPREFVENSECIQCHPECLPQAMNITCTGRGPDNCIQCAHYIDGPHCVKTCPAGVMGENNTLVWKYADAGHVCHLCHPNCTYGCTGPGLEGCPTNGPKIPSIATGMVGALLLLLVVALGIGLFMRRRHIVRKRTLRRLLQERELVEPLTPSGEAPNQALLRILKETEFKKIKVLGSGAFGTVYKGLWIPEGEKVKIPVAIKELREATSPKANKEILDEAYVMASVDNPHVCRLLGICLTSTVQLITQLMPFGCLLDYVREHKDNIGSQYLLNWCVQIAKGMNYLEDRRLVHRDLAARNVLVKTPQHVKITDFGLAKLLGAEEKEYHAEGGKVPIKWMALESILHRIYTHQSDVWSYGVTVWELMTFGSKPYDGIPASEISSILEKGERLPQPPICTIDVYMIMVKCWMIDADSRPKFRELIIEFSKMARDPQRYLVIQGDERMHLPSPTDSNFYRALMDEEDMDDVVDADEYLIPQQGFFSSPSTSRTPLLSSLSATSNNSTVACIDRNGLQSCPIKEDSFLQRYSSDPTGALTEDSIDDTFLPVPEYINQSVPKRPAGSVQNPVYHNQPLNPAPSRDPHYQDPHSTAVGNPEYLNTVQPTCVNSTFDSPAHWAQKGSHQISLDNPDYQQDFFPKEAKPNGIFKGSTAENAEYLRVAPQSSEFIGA
EGFR/ErbB1 (EGFR/ErbB1),Compound,also measured
,"CN(C)C/C=C/C(=O)Nc1cc2c(Nc3ccc(F)c(Cl)c3)ncnc2cc1O[C@H]1CCOC1.O=C(O)/C=C\C(=O)O.O=C(O)/C=C\C(=O)O [Afatinib (BIBW2992) Dimaleate, 2-butenamide, N-[4-[(3-chloro-4-fluorophenyl)amino] 7-[[(3S)-tetrahydro-3-furanyl]oxy]-6-quinazolinyl]-4-(dimethylamino)-,(2E)-, (2Z)-2-butenedioate (1:2)]",solubility in water [1]: water soluble
√,Cc1cc(O)c2c(c1)C(=O)c1cccc(O)c1C2=O [Chrysophanic Acid],
√,"C=CC(=O)N1CC[C@@H](Oc2nc(Nc3ccc(N4CCC(N5CCN(C)CC5)CC4)cc3)c(C(N)=O)nc2CC)C1 [Naquotinib(ASP8273), Naquotinib]",
√,O=C(/C=C/c1ccc(O)c(O)c1)c1ccc(O)cc1O [Butein],
√,"C=CC(=O)Nc1cccc(Oc2nc(Nc3ccc(N4CCN(C)CC4)cc3)nc3ccsc23)c1 [Olmutinib (HM61713, BI 1482694), Olmutinib]",
,Cc1cc(Nc2ncnc3ccc(-c4ccc(CNCCS(C)(=O)=O)o4)cc23)ccc1Oc1ccn2ncnc2c1 [HER2-Inhibitor-1],HER2/ErbB2 (HER2/ErbB2): √
√,C=CC(=O)Nc1cccc(Sc2nc(Nc3ccc(N4CCN(C)CC4)cc3)ncc2Cl)c1 [WZ8040],
